We go through 36 molecules from patent US8952034B2, “Fused heterocyclic compounds as ion channel modulators” (Gilead Sciences, Inc., priority 2009, dated 2015).

Chain of wild-type human cardiac sodium channel, hNav1.5 (Q14524 whole entry): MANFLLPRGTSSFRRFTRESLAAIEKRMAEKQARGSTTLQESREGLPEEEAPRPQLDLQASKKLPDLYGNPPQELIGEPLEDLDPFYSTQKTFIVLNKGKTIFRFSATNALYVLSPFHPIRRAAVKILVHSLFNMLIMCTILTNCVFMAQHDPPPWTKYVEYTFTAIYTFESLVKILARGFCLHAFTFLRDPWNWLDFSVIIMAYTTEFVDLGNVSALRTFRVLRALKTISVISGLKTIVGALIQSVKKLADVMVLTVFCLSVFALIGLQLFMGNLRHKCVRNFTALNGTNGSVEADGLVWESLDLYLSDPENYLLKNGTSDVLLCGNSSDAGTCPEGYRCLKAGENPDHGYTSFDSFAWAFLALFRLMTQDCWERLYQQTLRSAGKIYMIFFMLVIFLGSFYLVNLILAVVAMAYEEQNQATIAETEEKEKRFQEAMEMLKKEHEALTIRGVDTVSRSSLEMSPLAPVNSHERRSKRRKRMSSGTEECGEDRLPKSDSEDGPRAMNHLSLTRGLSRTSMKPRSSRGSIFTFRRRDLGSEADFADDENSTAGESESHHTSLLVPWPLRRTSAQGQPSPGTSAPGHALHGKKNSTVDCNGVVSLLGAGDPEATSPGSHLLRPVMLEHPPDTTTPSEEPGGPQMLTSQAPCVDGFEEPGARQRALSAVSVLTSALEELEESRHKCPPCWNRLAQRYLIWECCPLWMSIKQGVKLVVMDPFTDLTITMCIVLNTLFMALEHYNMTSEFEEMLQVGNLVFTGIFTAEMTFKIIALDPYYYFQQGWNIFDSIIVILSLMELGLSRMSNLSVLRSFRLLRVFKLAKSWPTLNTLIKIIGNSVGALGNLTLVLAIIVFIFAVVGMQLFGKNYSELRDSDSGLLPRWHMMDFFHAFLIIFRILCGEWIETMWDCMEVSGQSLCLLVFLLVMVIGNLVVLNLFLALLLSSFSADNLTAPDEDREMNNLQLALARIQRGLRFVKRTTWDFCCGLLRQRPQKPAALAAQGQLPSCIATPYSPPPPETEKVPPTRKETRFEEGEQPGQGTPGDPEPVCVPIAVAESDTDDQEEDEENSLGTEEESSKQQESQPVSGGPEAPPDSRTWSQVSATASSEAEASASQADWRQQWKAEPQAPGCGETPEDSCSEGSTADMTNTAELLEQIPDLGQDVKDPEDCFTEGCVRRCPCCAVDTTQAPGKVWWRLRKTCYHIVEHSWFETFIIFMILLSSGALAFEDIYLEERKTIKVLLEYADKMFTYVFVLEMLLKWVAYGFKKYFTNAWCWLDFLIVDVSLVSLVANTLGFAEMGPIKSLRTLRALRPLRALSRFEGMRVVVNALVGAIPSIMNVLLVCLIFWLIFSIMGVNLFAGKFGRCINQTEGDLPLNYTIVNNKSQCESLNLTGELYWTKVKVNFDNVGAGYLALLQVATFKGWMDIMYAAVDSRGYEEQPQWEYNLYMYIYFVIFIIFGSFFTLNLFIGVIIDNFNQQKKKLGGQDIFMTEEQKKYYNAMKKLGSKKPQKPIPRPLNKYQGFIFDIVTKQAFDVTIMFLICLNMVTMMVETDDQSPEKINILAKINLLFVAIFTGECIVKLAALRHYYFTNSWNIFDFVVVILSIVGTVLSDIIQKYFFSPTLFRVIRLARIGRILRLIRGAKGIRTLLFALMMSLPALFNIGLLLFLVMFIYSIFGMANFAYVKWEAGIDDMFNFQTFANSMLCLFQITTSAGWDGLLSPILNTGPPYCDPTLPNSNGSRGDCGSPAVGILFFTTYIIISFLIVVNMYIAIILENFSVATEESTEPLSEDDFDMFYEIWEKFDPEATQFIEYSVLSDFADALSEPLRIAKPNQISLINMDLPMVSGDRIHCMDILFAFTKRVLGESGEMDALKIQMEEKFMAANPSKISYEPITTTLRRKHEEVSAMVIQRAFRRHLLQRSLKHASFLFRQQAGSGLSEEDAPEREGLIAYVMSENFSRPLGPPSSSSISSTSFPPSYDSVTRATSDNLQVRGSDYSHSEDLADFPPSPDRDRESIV

For the experiment, the target named is wild-type human cardiac sodium channel, hNav1.5 (Homo sapiens, UniProt Q14524). The experiment can be described thus: Late INa screening assay (automated whole cell patch clamp, PatchXpress). The experiment is classed as cell-based. As to conditions: compound at 1 μM; HEK293 cells expressing hNav1.5; late INa generated with 10 μM Tefluthrin (or 50 nM ATX II); read-out: LateINa_1 uM (percent block of late INa). Put shortly:
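Late sodium current through wild-type human hNav1.5 stably expressed in HEK293 cells (no beta subunits) was recorded by automated whole-cell patch clamp on a PatchXpress 7000A at 24-27° C. Late INa was induced with 10 μM Tefluthrin or 50 nM ATX II. Cells were stepped from −120 mV to −20 mV for 250 ms at 0.1 Hz, and percent block was normalized to current in Na-free extracellular solution.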
For orientation: Patch clamp records ionic current or voltage across a cell membrane.
`COCC(F)(F)c1nnc2ccc(-c3ccc(Oc4ccc(F)cc4)cc3)cn12` [BHN-138, 3-(1,1-difluoro-2-methoxyethyl)-6-[4-(4-fluorophenoxy)phenyl][1,2,4]triazolo[4,3-a]pyridine]: the inhibition at 1 µM came to 42.8%.

With `FC(F)(F)Oc1ccc(-c2ccc3nnc(C(F)(F)COCc4cccnc4)n3c2)cc1` [BHN-139, 3-[1,1-difluoro-2-(pyridin-3-ylmethoxy)ethyl]-6-[4-(trifluoromethoxy)phenyl][1,2,4]triazolo[4,3-a]pyridine], the inhibition at 1 µM was 15.4%.

In the case of `COC(F)(F)c1nnc2ccc(-c3ccc(OC(F)(F)F)cc3)cn12` [BHN-140, 3-[difluoro(methoxy)methyl]-6-[4-(trifluoromethoxy)phenyl][1,2,4]triazolo[4,3-a]pyridine], the inhibition at 1 µM was determined as 53.2%.

As to `COCCOC(F)(F)c1nnc2ccc(-c3ccc(OC(F)(F)F)cc3)cn12` [BHN-141, 3-[difluoro(2-methoxyethoxy)methyl]-6-[4-(trifluoromethoxy)phenyl][1,2,4]triazolo[4,3-a]pyridine], the inhibition at 1 µM came out at 32.5%.

For `CC1(COC(F)(F)c2nnc3ccc(-c4ccc(OC(F)(F)F)cc4)cn23)COC1` [BHN-142, 3-{difluoro[(3-methyloxetan-3-yl)methoxy]methyl}-6-[4-(trifluoromethoxy)phenyl][1,2,4]triazolo[4,3-a]pyridine], the inhibition at 1 µM came to 38.8%.

As to `FC(F)(F)Oc1ccc(-c2ccc3nnc(Oc4ccccc4)n3c2)cc1` [BHN-143, 3-phenoxy-6-[4-(trifluoromethoxy)phenyl][1,2,4]triazolo[4,3-a]pyridine], the inhibition at 1 µM was 81.4%.

For the molecule `COCC(F)(F)c1nnc2ccc(-c3ccc(OCC(F)(F)F)nc3)cn12` [BHN-144, 3-(1,1-difluoro-2-methoxyethyl)-6-[6-(2,2,2-trifluoroethoxy)pyridin-3-yl][1,2,4]triazolo[4,3-a]pyridine], the inhibition at 1 µM is 36.4%.

Turning to `Fc1cc(OC(F)(F)F)ccc1-c1ccc2nnc(C(F)(F)F)n2c1` [BHN-145, 6-[2-fluoro-4-(trifluoromethoxy)phenyl]-3-(trifluoromethyl)[1,2,4]triazolo[4,3-a]pyridine], the inhibition at 1 µM came out at 55.3%.

On to `Fc1cc(-c2ccc3nnc(C(F)(F)F)n3c2)ccc1OC(F)(F)F` [BHN-146, 6-[3-fluoro-4-(trifluoromethoxy)phenyl]-3-(trifluoromethyl)[1,2,4]triazolo[4,3-a]pyridine], for which the inhibition at 1 µM was determined as 58.2%.

As for `Cc1nc(COC(F)(F)c2nnc3ccc(-c4ccc(OC(F)(F)F)cc4)cn23)no1` [BHN-147, 3-{difluoro[(5-methyl-1,2,4-oxadiazol-3-yl)methoxy]methyl}-6-[4-(trifluoromethoxy)phenyl][1,2,4]triazolo[4,3-a]pyridine], the inhibition at 1 µM was 29.1%.

For `FC(F)(F)Oc1ccc(-c2ccc3nnc(C(F)(F)OCc4ccccc4)n3c2)cc1` [BHN-148, 3-[(benzyloxy)(difluoro)methyl]-6-[4-(trifluoromethoxy)phenyl][1,2,4]triazolo[4,3-a]pyridine], the inhibition at 1 µM stood at 71.7%.

Consider `FC(F)(F)Oc1ccc(-c2ccc3nnc(C(F)(F)OCc4ccncc4)n3c2)cc1` [BHN-149, 3-[difluoro(pyridin-4-ylmethoxy)methyl]-6-[4-(trifluoromethoxy)phenyl][1,2,4]triazolo[4,3-a]pyridine], for which the inhibition at 1 µM stood at 34%.

On to `CN(C)CCOCC(F)(F)c1nnc2ccc(-c3ccc(OC(F)(F)F)cc3)cn12` [BHN-150, 2-(2,2-difluoro-2-{6-[4-(trifluoromethoxy)phenyl][1,2,4]triazolo[4,3-a]pyridin-3-yl}ethoxy)-N,N-dimethylethanamine], for which the inhibition at 1 µM was determined as 15.6%.

With `FC(F)(F)c1nnc2ccc(-c3ccc(OCC4CC4)cc3)cn12` [BHN-151, 6-[4-(cyclopropylmethoxy)phenyl]-3-(trifluoromethyl)[1,2,4]triazolo[4,3-a]pyridine], the inhibition at 1 µM turned out to be 43.1%.

For the molecule `COc1cc(OC(F)(F)F)ccc1-c1ccc2nnc(C(F)(F)F)n2c1` [BHN-152, 6-[2-methoxy-4-(trifluoromethoxy)phenyl]-3-(trifluoromethyl)[1,2,4]triazolo[4,3-a]pyridine], the inhibition at 1 µM is 71.8%.

Consider `FC(F)(F)Oc1ccc(-c2ccc3nnc(C(F)(F)F)n3c2)cc1-c1nnco1` [BHN-153, 6-[3-(1,3,4-oxadiazol-2-yl)-4-(trifluoromethoxy)phenyl]-3-(trifluoromethyl)[1,2,4]triazolo[4,3-a]pyridine], for which the inhibition at 1 µM was 17.2%.

`CC(=O)c1ccc(-c2ccc3nnc(C(F)(F)F)n3c2)cc1` [BHN-154, 1-(4-(3-(trifluoromethyl)-[1,2,4]triazolo[4,3-a]pyridin-6-yl)phenyl)ethanone]: the inhibition at 1 µM worked out at 19.2%.

For the molecule `OC(c1nnc2ccc(-c3ccc(OC(F)(F)F)cc3)cn12)C(F)(F)F` (stereo not drawn) [BHN-155, 2,2,2-trifluoro-1-{6-[4-(trifluoromethoxy)phenyl][1,2,4]triazolo[4,3-a]pyridin-3-yl}ethanol], the inhibition at 1 µM amounted to 16.2%.

`N#CCOCC(F)(F)c1nnc2ccc(-c3ccc(OC(F)(F)F)cc3)cn12` [BHN-156, (2,2-difluoro-2-{6-[4-(trifluoromethoxy)phenyl][1,2,4]triazolo[4,3-a]pyridin-3-yl}ethoxy)acetonitrile]: the inhibition at 1 µM came to 22.3%.

Take `OCCOC(F)(F)c1nnc2ccc(-c3ccc(OC(F)(F)F)cc3)cn12` [BHN-157, 2-(difluoro{6-[4-(trifluoromethoxy)phenyl][1,2,4]triazolo[4,3-a]pyridin-3-yl}methoxy)ethanol]: the inhibition at 1 µM came to 18.3%.

On to `CC(O)COC(F)(F)c1nnc2ccc(-c3ccc(OC(F)(F)F)cc3)cn12` (stereo not drawn) [BHN-158, 1-(difluoro{6-[4-(trifluoromethoxy)phenyl][1,2,4]triazolo[4,3-a]pyridin-3-yl}methoxy)propan-2-ol], for which the inhibition at 1 µM came to 32.9%.

Turning to `FC(F)(F)Oc1ccc(-c2ccc3nnc(C(F)(F)CCl)n3c2)cc1` [BHN-160, 3-(2-chloro-1,1-difluoroethyl)-6-[4-(trifluoromethoxy)phenyl][1,2,4]triazolo[4,3-a]pyridine], the inhibition at 1 µM was determined as 62%.

Take `FC(F)(F)Oc1ccc(-c2ccc3nnc(C(F)(F)F)n3c2)c2ncccc12` [BHN-161, 5-(trifluoromethoxy)-8-[3-(trifluoromethyl)[1,2,4]triazolo[4,3-a]pyridin-6-yl]quinoline]: the inhibition at 1 µM was 49.5%.

As for `CC1(c2ccc(-c3ccc4nnc(C(F)(F)F)n4c3)cc2)OCCO1` [BHN-162, 6-[4-(2-methyl-1,3-dioxolan-2-yl)phenyl]-3-(trifluoromethyl)[1,2,4]triazolo[4,3-a]pyridine], the inhibition at 1 µM worked out at 29.9%.

As to `FC(F)(F)c1nnc2ccc(C#Cc3ccccc3)cn12` [BHN-163, 6-(phenylethynyl)-3-(trifluoromethyl)[1,2,4]triazolo[4,3-a]pyridine], the inhibition at 1 µM came out at 57.3%.

`FC(F)(F)Oc1ccc(-c2ccc3nnc(C(F)(F)F)n3c2)cc1Cl` [BHN-164, 6-[3-chloro-4-(trifluoromethoxy)phenyl]-3-(trifluoromethyl)[1,2,4]triazolo[4,3-a]pyridine]: the inhibition at 1 µM turned out to be 50.7%.

In the case of `CC(O)C(F)(F)c1nnc2ccc(-c3ccc(OC(F)(F)F)cc3)cn12` (stereo not drawn) [BHN-165, 1,1-difluoro-1-{6-[4-(trifluoromethoxy)phenyl][1,2,4]triazolo[4,3-a]pyridin-3-yl}propan-2-ol], the inhibition at 1 µM was determined as 28.1%.

Consider `OC(C1CC1)C(F)(F)c1nnc2ccc(-c3ccc(OC(F)(F)F)cc3)cn12` (stereo not drawn) [BHN-166, 1-cyclopropyl-2,2-difluoro-2-{6-[4-(trifluoromethoxy)phenyl][1,2,4]triazolo[4,3-a]pyridin-3-yl}ethanol], for which the inhibition at 1 µM amounted to 29.5%.

`CCOC(=O)COCC(F)(F)c1nnc2ccc(-c3ccc(OC(F)(F)F)cc3)cn12` [BHN-167, ethyl (2,2-difluoro-2-{6-[4-(trifluoromethoxy)phenyl][1,2,4]triazolo[4,3-a]pyridin-3-yl}ethoxy)acetate]: the inhibition at 1 µM was 45.8%.

With `C/C(=C\C#N)c1ccc(-c2ccc3nnc(C(F)(F)F)n3c2)cc1` [BHN-169, (2E)-3-{4-[3-(trifluoromethyl)[1,2,4]triazolo[4,3-a]pyridin-6-yl]phenyl}but-2-enenitrile], the inhibition at 1 µM came out at 30.5%.

Take `FC(F)(F)Oc1ccc(-c2ccc3nnc(Sc4ccccc4)n3c2)cc1` [BHN-170, 3-(phenylsulfanyl)-6-[4-(trifluoromethoxy)phenyl][1,2,4]triazolo[4,3-a]pyridine]: the inhibition at 1 µM amounted to 66.2%.

Take `FC(F)(F)Oc1ccc(-c2ccc3nnc(C#CC4CC4)n3c2)cc1` [BHN-171, 3-(cyclopropylethynyl)-6-[4-(trifluoromethoxy)phenyl][1,2,4]triazolo[4,3-a]pyridine]: the inhibition at 1 µM came to 49.3%.

Regarding `FC(F)(F)Oc1ccc(-c2ccc3nnc(C(F)(F)COCc4ccccn4)n3c2)cc1` [BHN-172, 3-[1,1-difluoro-2-(pyridin-2-ylmethoxy)ethyl]-6-[4-(trifluoromethoxy)phenyl][1,2,4]triazolo[4,3-a]pyridine], the inhibition at 1 µM was 30.7%.

With `CC(C)(O)C#Cc1nnc2ccc(-c3ccc(OC(F)(F)F)cc3)cn12` [BHN-173, 2-methyl-4-{6-[4-(trifluoromethoxy)phenyl][1,2,4]triazolo[4,3-a]pyridin-3-yl}but-3-yn-2-ol], the inhibition at 1 µM was 30.8%.

`CNC(=O)c1cc(-c2ccc3nnc(C(F)(F)F)n3c2)ccc1OC(F)(F)F` [BHN-174, N-methyl-2-(trifluoromethoxy)-5-[3-(trifluoromethyl)[1,2,4]triazolo[4,3-a]pyridin-6-yl]benzamide]: the inhibition at 1 µM came to 16%.

Take `CS(=O)(=O)NCC(F)(F)c1nnc2ccc(-c3ccc(OC(F)(F)F)cc3)cn12` [BHN-175, N-(2,2-difluoro-2-{6-[4-(trifluoromethoxy)phenyl][1,2,4]triazolo[4,3-a]pyridin-3-yl}ethyl)methanesulfonamide]: the inhibition at 1 µM was determined as 16.3%.
